These are literature values, as cited in US20060241549A1, “Apparatus and method for precise ozone/oxygen delivery applied to the treatment of dermatological conditions, including gas gangrene, and related disorders” (priority 2005, published 2006).

For the series the following is noted: as a gas, at room temperature.

As for `O=[O+][O-]` [ozone, Ozone], the half-life entry was “approximately 50 minutes”.
